Measured values published in patent US20170095497A1, “TRANSIENT INHIBITION OF ADENOSINE KINASE AS AN ANTI-EPILE[…]” (Legacy Emanuel Hospital & Health Center, priority 2015, published 2017).

Experiments:
[1] = tested on: DNA methyltransferase (DNMT); settings: mice, one hour after administration
Source text: FIGS. 3 and 4 show a pair of bar graphs reporting the level of DNMT activity measured one hour after administration to mice of vehicle alone or with the indicated inhibitor.

[2] = tested on: kainic acid (KA) triggered epileptogenesis in mice; experiment: EEG seizure recording six weeks after intrahippocampal kainic acid-triggered epileptogenesis, transient ITU treatment; type: in vivo, mouse
Method: (§1) Kainic acid (KA) was administered intrahippocampally (IH) at day 0 to produce status epilepticus. […] At six weeks and nine weeks, the subjects were analyzed by EEG alone or EEG and histology, respectively.
The number of subjects from which data were collected is indicated in parentheses above each condition.

[3] = tested on: kainic acid (KA) triggered epileptogenesis in mice; experiment: Histological analysis of hippocampal tissue sections at nine weeks after KA status epilepticus; type: in vivo, mouse
Method: as §1
Administration of saline only is a control (top row of images). […] The tissue sections shown in the first column of images were Nissl stained, and those in the second, third, and fourth columns were stained respectively with antibodies to glial fibrillary acidic protein (GFAP), ADK, and 5-methylcytosine (5mC).
FIGS. 12-14 are a series of graphs plotting data from the histological analysis represented by FIG. 11. […] FIG. 13 plots the level of GFAP, and FIG. 14 the level of ADK.

[4] = 1.6 mg/kg ip twice daily, day 3 to day 8 after KA, EEG at six weeks
[5] = hippocampal sections, nine weeks after KA, transient ITU ip

## Nc1ncnc2c1c(I)cn2[C@@H]1O[C@H](CO)[C@@H](O)[C@H]1O [ITU, 5-iodotubercidin]
[1]; ITU 3.1 mg/kg
  inhibition of DNMT compared with AZA: as effective as AZA
[1]
  DNMT inhibition compared with ADOX and IODO: most effective
[2]; [4]
  seizure frequency: dramatically reduced
  time spent in seizure: dramatically reduced
[2]; 3.1 mg/kg ip once daily, day 3 to day 8 after KA, EEG at six weeks
  frequency of seizures and time spent in seizures: substantially ineffective
[2]; ITU twice daily, EEG at six weeks, repeat of FIGS. 6 and 7
  frequency of seizures and time spent in seizures, partial repeat experiment: confirm the long-term, anti-epileptogenic effect
[2]; mice, inferred from once-daily versus twice-daily efficacy
  half-life: much less than one day
[3]; Nissl stained sections, nine weeks, compared to controls
  dentate granule layer dispersion produced by KA: significantly less
[3]; [5]
  level of 5-methylcytosine: reduced
  level of ADK: reduced
[3]; nine weeks after KA, transient ITU ip
  epilepsy-associated histopathology (Nissl): prevented later development of epilepsy-associated histopathology
